Assay results: patent publication US11883526B2 (priority 2019, dated 2024)

Experiments:
[1] = test system: patients with treatment-resistant depression (TRD); experiment: Vital signs: blood pressure and heart rate (Example 7); assay type: in vivo, human
Experimental: (§1) Adverse events were monitored throughout the study. Other safety assessments (i.e., laboratory tests, vital signs, physical examination) were performed at pre-specified time points. Vital signs, the Clinician Administered Dissociative States Scale (CADSS; Bremner, “Measurement of dissociative states with the clinician-administered dissociative states scale (CADSS)”, J. Traumatic Stress, 1998, 11(1):125-136), and the 4-item positive symptom subscale from the Brief Psychiatric Rating Scale (BPRS; Overall, “The Brief Psychiatric Rating Scale. Psychological Reports”, 1962, 10:799-812) were assessed pre-dose, at 40 minutes, and 2 hours post-dose.

[2] = test system: patients with treatment-resistant depression (TRD); experiment: Adverse events (Example 7); assay type: in vivo, human; details: for Dissociation, number of participants / Dissociative disorder, % of participants / Dissociative disorder, number of participants / Dizziness, % of participants / Dizziness, number of participants / Dysgeusia, % of participants / Dysgeusia, number of participants / Feeling abnormal, % of participants / Feeling abnormal, number of participants / Headache, % of participants / Headache, number of participants / Hypersomnia, % of participants / Hypersomnia, number of participants / Hypertension, number of participants / Hypoesthesia oral, % of participants / Hypoesthesia oral, number of participants / Insomnia, number of participants / Nasal discomfort, number of participants / Nausea, % of participants / Nausea, number of participants / Oropharyngeal pain, number of participants / Polyuria, number of participants / Sedation, % of participants / Sedation, number of participants / Throat irritation, % of participants / Throat irritation, number of participants / Total with events, % of participants / Total with events, number of participants / Tunnel vision, number of participants / Vertigo, % of participants / Vertigo, number of participants / Vision blurred, number of participants / Dissociation, % of participants / Hypertension, % of participants / Insomnia, % of participants / Nasal discomfort, % of participants / Oropharyngeal pain, % of participants / Polyuria, % of participants / Tunnel vision, % of participants / Vision blurred, % of participants: double-blind
Experimental: as §1
Safety data were analyzed in Period 1, Period 2, double-blind, and open-label data sets, for all subjects receiving at least 1 dose of study medication.

CN[C@]1(c2ccccc2Cl)CCCCC1=O [esketamine, (S)-2-(2-chlorophenyl)-2-(methylamino)cyclohexanone]
maximum diastolic blood pressure value ([1]; 10 or 40 minutes post-dose): 115 mmHg
maximum systolic blood pressure value ([1]; 10 or 40 minutes post-dose): 199 mmHg
maximum mean change in diastolic blood pressure ([1]; dosing days): 10.3 mmHg
maximum mean change in heart rate ([1]; dosing days): 9.4 bpm
maximum mean change in systolic blood pressure ([1]; dosing days): 19.0 mmHg
elevated blood pressure returned to the normal range by ([1]; in vivo): ≤ 2 hours post-dose
participants with adverse events leading to discontinuation of study drug ([2]; double-blind phase): 5%
Dissociation, number of participants ([2]; 28 mg): 0
Dissociative disorder, % of participants ([2]; 28 mg): (11) %
Dissociative disorder, number of participants ([2]; 28 mg): 2
Dizziness, % of participants ([2]; 28 mg): (21) %
Dizziness, number of participants ([2]; 28 mg): 4
Dysgeusia, % of participants ([2]; 28 mg): (11) %
Dysgeusia, number of participants ([2]; 28 mg): 2
Feeling abnormal, % of participants ([2]; 28 mg): (11) %
Feeling abnormal, number of participants ([2]; 28 mg): 2
Headache, % of participants ([2]; 28 mg): (32) %
Headache, number of participants ([2]; 28 mg): 6
Hypersomnia, % of participants ([2]; 28 mg): (11) %
Hypersomnia, number of participants ([2]; 28 mg): 2
Hypertension, number of participants ([2]; 28 mg): 0
Hypoesthesia oral, % of participants ([2]; 28 mg): (5) %
Hypoesthesia oral, number of participants ([2]; 28 mg): 1
Insomnia, number of participants ([2]; 28 mg): 0
Nasal discomfort, number of participants ([2]; 28 mg): 0
Nausea, % of participants ([2]; 28 mg): (11) %
Nausea, number of participants ([2]; 28 mg): 2
Oropharyngeal pain, number of participants ([2]; 28 mg): 0
Polyuria, number of participants ([2]; 28 mg): 0
Sedation, % of participants ([2]; 28 mg): (5) %
Sedation, number of participants ([2]; 28 mg): 1
Throat irritation, % of participants ([2]; 28 mg): (5) %
Throat irritation, number of participants ([2]; 28 mg): 1
Total with events, % of participants ([2]; 28 mg): (58) %
Total with events, number of participants ([2]; 28 mg): 11
Tunnel vision, number of participants ([2]; 28 mg): 0
Vertigo, % of participants ([2]; 28 mg): (11) %
Vertigo, number of participants ([2]; 28 mg): 2
Vision blurred, number of participants ([2]; 28 mg): 0
Dissociation, % of participants ([2]; 56 mg): (35) %
Dissociation, number of participants ([2]; 56 mg): 7
Dissociative disorder, % of participants ([2]; 56 mg): (5) %
Dissociative disorder, number of participants ([2]; 56 mg): 1
Dizziness, % of participants ([2]; 56 mg): (40) %
Dizziness, number of participants ([2]; 56 mg): 8
Dysgeusia, % of participants ([2]; 56 mg): (15) %
Dysgeusia, number of participants ([2]; 56 mg): 3
Feeling abnormal, % of participants ([2]; 56 mg): (5) %
Feeling abnormal, number of participants ([2]; 56 mg): 1
Headache, % of participants ([2]; 56 mg): (15) %
Headache, number of participants ([2]; 56 mg): 3
Hypersomnia, number of participants ([2]; 56 mg): 0
Hypertension, % of participants ([2]; 56 mg): (10) %
Hypertension, number of participants ([2]; 56 mg): 2
Hypoesthesia oral, % of participants ([2]; 56 mg): (20) %
Hypoesthesia oral, number of participants ([2]; 56 mg): 4
Insomnia, % of participants ([2]; 56 mg): (10) %
Insomnia, number of participants ([2]; 56 mg): 2
Nasal discomfort, % of participants ([2]; 56 mg): (10) %
Nasal discomfort, number of participants ([2]; 56 mg): 2
Nausea, % of participants ([2]; 56 mg): (20) %
Nausea, number of participants ([2]; 56 mg): 4
Oropharyngeal pain, % of participants ([2]; 56 mg): (5) %
Oropharyngeal pain, number of participants ([2]; 56 mg): 1
Polyuria, % of participants ([2]; 56 mg): (10) %
Polyuria, number of participants ([2]; 56 mg): 2
Sedation, % of participants ([2]; 56 mg): (10) %
Sedation, number of participants ([2]; 56 mg): 2
Throat irritation, number of participants ([2]; 56 mg): 0
Total with events, % of participants ([2]; 56 mg): (80) %
Total with events, number of participants ([2]; 56 mg): 16
Tunnel vision, number of participants ([2]; 56 mg): 0
Vertigo, % of participants ([2]; 56 mg): (5) %
Vertigo, number of participants ([2]; 56 mg): 1
Vision blurred, number of participants ([2]; 56 mg): 0
Dissociation, % of participants ([2]; 84 mg): (24) %
Dissociation, number of participants ([2]; 84 mg): 4
Dissociative disorder, % of participants ([2]; 84 mg): (24) %
Dissociative disorder, number of participants ([2]; 84 mg): 4
Dizziness, % of participants ([2]; 84 mg): (47) %
Dizziness, number of participants ([2]; 84 mg): 8
Dysgeusia, % of participants ([2]; 84 mg): (29) %
Dysgeusia, number of participants ([2]; 84 mg): 5
Feeling abnormal, % of participants ([2]; 84 mg): (6) %
Feeling abnormal, number of participants ([2]; 84 mg): 1
Headache, % of participants ([2]; 84 mg): (18) %
Headache, number of participants ([2]; 84 mg): 3
Hypersomnia, number of participants ([2]; 84 mg): 0
Hypertension, % of participants ([2]; 84 mg): (6) %
Hypertension, number of participants ([2]; 84 mg): 1
Hypoesthesia oral, % of participants ([2]; 84 mg): (12) %
Hypoesthesia oral, number of participants ([2]; 84 mg): 2
Insomnia, number of participants ([2]; 84 mg): 0
Nasal discomfort, % of participants ([2]; 84 mg): (6) %
Nasal discomfort, number of participants ([2]; 84 mg): 1
Nausea, % of participants ([2]; 84 mg): (24) %
Nausea, number of participants ([2]; 84 mg): 4
Oropharyngeal pain, % of participants ([2]; 84 mg): (12) %
Oropharyngeal pain, number of participants ([2]; 84 mg): 2
Polyuria, number of participants ([2]; 84 mg): 0
Sedation, % of participants ([2]; 84 mg): (6) %
Sedation, number of participants ([2]; 84 mg): 1
Throat irritation, % of participants ([2]; 84 mg): (12) %
Throat irritation, number of participants ([2]; 84 mg): 2
Total with events, % of participants ([2]; 84 mg): (88) %
Total with events, number of participants ([2]; 84 mg): 15
Tunnel vision, % of participants ([2]; 84 mg): (12) %
Tunnel vision, number of participants ([2]; 84 mg): 2
Vertigo, % of participants ([2]; 84 mg): (6) %
Vertigo, number of participants ([2]; 84 mg): 1
Vision blurred, % of participants ([2]; 84 mg): (12) %
Vision blurred, number of participants ([2]; 84 mg): 2
Dissociation, % of participants ([2]; esketamine Total): (20) %
Dissociation, number of participants ([2]; esketamine Total): 11
Dissociative disorder, % of participants ([2]; esketamine Total): (13) %
Dissociative disorder, number of participants ([2]; esketamine Total): 7
Dizziness, % of participants ([2]; esketamine Total): (36) %
Dizziness, number of participants ([2]; esketamine Total): 20
Dysgeusia, % of participants ([2]; esketamine Total): (18) %
Dysgeusia, number of participants ([2]; esketamine Total): 10
Feeling abnormal, % of participants ([2]; esketamine Total): (7) %
Feeling abnormal, number of participants ([2]; esketamine Total): 4
Headache, % of participants ([2]; esketamine Total): (21) %
Headache, number of participants ([2]; esketamine Total): 12
Hypersomnia, % of participants ([2]; esketamine Total): (4) %
Hypersomnia, number of participants ([2]; esketamine Total): 2
Hypertension, % of participants ([2]; esketamine Total): (5) %
Hypertension, number of participants ([2]; esketamine Total): 3
Hypoesthesia oral, % of participants ([2]; esketamine Total): (13) %
Hypoesthesia oral, number of participants ([2]; esketamine Total): 7
Insomnia, % of participants ([2]; esketamine Total): (4) %
Insomnia, number of participants ([2]; esketamine Total): 2
Nasal discomfort, % of participants ([2]; esketamine Total): (5) %
Nasal discomfort, number of participants ([2]; esketamine Total): 3
Nausea, % of participants ([2]; esketamine Total): (18) %
Nausea, number of participants ([2]; esketamine Total): 10
Oropharyngeal pain, % of participants ([2]; esketamine Total): (5) %
Oropharyngeal pain, number of participants ([2]; esketamine Total): 3
Polyuria, % of participants ([2]; esketamine Total): (4) %
Polyuria, number of participants ([2]; esketamine Total): 2
Sedation, % of participants ([2]; esketamine Total): (7) %
Sedation, number of participants ([2]; esketamine Total): 4
Throat irritation, % of participants ([2]; esketamine Total): (5) %
Throat irritation, number of participants ([2]; esketamine Total): 3
Total with events, % of participants ([2]; esketamine Total): (75) %
Total with events, number of participants ([2]; esketamine Total): 42
Tunnel vision, % of participants ([2]; esketamine Total): (4) %
Tunnel vision, number of participants ([2]; esketamine Total): 2
Vertigo, % of participants ([2]; esketamine Total): (7) %
Vertigo, number of participants ([2]; esketamine Total): 4
Vision blurred, % of participants ([2]; esketamine Total): (4) %
Vision blurred, number of participants ([2]; esketamine Total): 2
deaths ([2]; in vivo): No death
adverse event incidence: dizziness ([2]; open-label phase): 38.6%
adverse event incidence: dysgeusia ([2]; open-label phase): 22.8%
adverse event incidence: headache ([2]; open-label phase): 14.0%
adverse event incidence: nausea ([2]; open-label phase): 15.8%
adverse event incidence: sedation ([2]; open-label phase): 10.5%
participants reporting transient dissociative symptoms ([2]; open-label phase): 24.6%
participants with adverse events leading to discontinuation of study drug ([2]; open-label phase): 2%
